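Compound exposure: 48 hours, 5 concentrations, 96-well plates. Here, GI50 denotes the concentration required for 50% inhibition of growth.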 Calls of active or inactive are those of the source. Cut-off read from the data, not from the text of the source: active = GI50 up to about 1.1 µM and inactive = higher.
Experiments:
Assay in all cases: growth of human tumour cells (NCI), 48 h
[1] = test system: 786-0
[2] = test system: CAKI-1
[3] = test system: CCRF-CEM
[4] = test system: HL-60
[5] = test system: HT-29
[6] = test system: KM12
[7] = test system: MOLT-4
[8] = test system: NCI-H23
[9] = test system: NCI-H522
[10] = test system: OVCAR-3
[11] = test system: OVCAR-4
[12] = test system: SF-539
[13] = test system: SK-MEL-5
[14] = test system: SK-OV-3
[15] = test system: SN12C
[16] = test system: SNB-75
[17] = test system: TK-10
[18] = test system: U-251
[19] = test system: UACC-62
[20] = test system: UO-31

With COC(=O)c1cc2c(s1)C(=O)c1ccccc1-2 the GI50 [1] was > 100 µM (inactive), the GI50 [2] was > 100 µM (inactive) and the GI50 [3] was > 100 µM (inactive). The GI50 [4] was > 100 µM (inactive), the GI50 [5] was > 10 µM (inactive) and the GI50 [6] was > 100 µM (inactive). The GI50 [7] was > 100 µM (inactive), the GI50 [8] was > 100 µM (inactive) and the GI50 [9] was > 100 µM (inactive). For the same compound, the GI50 [10] was > 100 µM (inactive), the GI50 [11] was > 100 µM (inactive) and the GI50 [12] was > 100 µM (inactive). For the same compound, the GI50 [13] was > 100 µM (inactive), the GI50 [14] was > 100 µM (inactive) and the GI50 [15] was > 100 µM (inactive). The GI50 [16] was > 100 µM (inactive), the GI50 [17] was > 100 µM (inactive) and the GI50 [18] was > 100 µM (inactive). For the same compound, the GI50 [19] was > 100 µM (inactive) and the GI50 [20] was > 100 µM (inactive).
COC(=O)Cc1c([C@H]2[C@H](CC(=O)OC)c3ccccc3N2C(=O)C(F)(F)F)[nH]c2ccccc12 was tested, and the GI50 [1] was > 100 µM (inactive), the GI50 [2] was 41.3 µM (inactive) and the GI50 [3] was 14.6 µM (inactive). The GI50 [4] was 40.3 µM (inactive), the GI50 [5] was 29.3 µM (inactive) and the GI50 [7] was 9.02 µM (inactive). For the same compound, the GI50 [8] was 25.2 µM (inactive), the GI50 [9] was 12 µM (inactive) and the GI50 [10] was 15.9 µM (inactive). The GI50 [11] was 56.6 µM (inactive), the GI50 [12] was 29.5 µM (inactive) and the GI50 [13] was 11.6 µM (inactive). The GI50 [14] was 28.5 µM (inactive), the GI50 [15] was 46.1 µM (inactive) and the GI50 [16] was 29.2 µM (inactive). For the same compound, the GI50 [17] was 51.4 µM (inactive), the GI50 [18] was 13.6 µM (inactive) and the GI50 [19] was 13.6 µM (inactive). The GI50 [20] was 33.6 µM (inactive).
C=C1CCC2[C@@H](CCC3[C@]2(C)CCC[C@]3(C)C(=O)OC)C1CCO (stereo partly drawn) was tested, and the GI50 [1] was 18.3 µM (inactive), the GI50 [2] was 12.1 µM (inactive) and the GI50 [3] was 10.5 µM (inactive). The GI50 [4] was 4.02 µM (inactive), the GI50 [5] was 4.37 µM (inactive) and the GI50 [6] was 12.5 µM (inactive). For the same compound, the GI50 [7] was 4 µM (inactive), the GI50 [8] was 9.35 µM (inactive) and the GI50 [9] was 5.2 µM (inactive). For the same compound, the GI50 [10] was 12.6 µM (inactive), the GI50 [11] was 12.8 µM (inactive) and the GI50 [12] was 13.4 µM (inactive). The GI50 [13] was 4.53 µM (inactive), the GI50 [14] was 29.3 µM (inactive) and the GI50 [15] was 11.9 µM (inactive). The GI50 [16] was 7.46 µM (inactive), the GI50 [17] was 18.6 µM (inactive) and the GI50 [18] was 11.1 µM (inactive). The GI50 [19] was 11.2 µM (inactive) and the GI50 [20] was 14.7 µM (inactive).
For CCCCCCCCCCCC(=O)OCC(C[As](=O)(O)O)OC(=O)CCCCCCCCCCC (stereo not drawn), the GI50 [1] was 13.4 µM (inactive), the GI50 [2] was 9.27 µM (inactive) and the GI50 [3] was 3.72 µM (inactive). For the same compound, the GI50 [4] was 2.61 µM (inactive), the GI50 [5] was 7.62 µM (inactive) and the GI50 [6] was 7.1 µM (inactive). The GI50 [7] was 3.96 µM (inactive), the GI50 [8] was 5.61 µM (inactive) and the GI50 [9] was 2.13 µM (inactive). The GI50 [10] was 8.81 µM (inactive), the GI50 [11] was 15.1 µM (inactive) and the GI50 [12] was 7.89 µM (inactive). The GI50 [13] was 1.75 µM (inactive), the GI50 [14] was 13.8 µM (inactive) and the GI50 [15] was 2.94 µM (inactive). The GI50 [16] was 6.95 µM (inactive), the GI50 [17] was 14.3 µM (inactive) and the GI50 [18] was 1.54 µM (inactive). For the same compound, the GI50 [19] was 2.03 µM (inactive) and the GI50 [20] was 12.4 µM (inactive).
For COc1ccc(N(C)C(=O)N(C)c2ccc([N+](=O)[O-])cc2)cc1, the GI50 [1] was 58.9 µM (inactive), the GI50 [2] was 41.6 µM (inactive) and the GI50 [3] was 23.9 µM (inactive). For the same compound, the GI50 [4] was 31 µM (inactive), the GI50 [5] was 28.6 µM (inactive) and the GI50 [6] was 18.8 µM (inactive). The GI50 [7] was > 100 µM (inactive), the GI50 [8] was 34.6 µM (inactive) and the GI50 [9] was 23.8 µM (inactive). For the same compound, the GI50 [10] was 26.7 µM (inactive), the GI50 [11] was 11.2 µM (inactive) and the GI50 [12] was 29.6 µM (inactive). For the same compound, the GI50 [13] was 38.8 µM (inactive), the GI50 [14] was 17.7 µM (inactive) and the GI50 [15] was 61.4 µM (inactive). The GI50 [16] was 29.6 µM (inactive), the GI50 [17] was 10.5 µM (inactive) and the GI50 [18] was 30.4 µM (inactive). The GI50 [19] was 33.9 µM (inactive) and the GI50 [20] was 41.4 µM (inactive).
With C=C1CC(C)(COc2ccc3c(C)c(C)c(=O)oc3c2C)OC1=O (stereo not drawn) the GI50 [1] was 1.4 µM (inactive), the GI50 [2] was 1.7 µM (inactive) and the GI50 [3] was 0.411 µM (active). For the same compound, the GI50 [4] was 0.19 µM (active), the GI50 [5] was 2.17 µM (inactive) and the GI50 [6] was 4.54 µM (inactive). The GI50 [7] was 1.08 µM (active), the GI50 [8] was 1.82 µM (inactive) and the GI50 [9] was 1.56 µM (inactive). The GI50 [10] was 3.3 µM (inactive), the GI50 [11] was 4.3 µM (inactive) and the GI50 [12] was 2.24 µM (inactive). For the same compound, the GI50 [13] was 1.68 µM (inactive), the GI50 [14] was 3.05 µM (inactive) and the GI50 [15] was 2.04 µM (inactive). For the same compound, the GI50 [16] was 3.66 µM (inactive), the GI50 [17] was 1.15 µM (inactive) and the GI50 [18] was 6.56 µM (inactive). The GI50 [19] was 1.27 µM (inactive) and the GI50 [20] was 9.18 µM (inactive).
CC(C)(C)OC(=O)NC(Cc1ccc(OCc2ccccc2)cc1)C(=O)NC(COCc1ccccc1)C(=O)Oc1c(Cl)c(Cl)c(Cl)c(Cl)c1Cl (stereo not drawn) was tested, and the GI50 [2] was 19.9 µM (inactive), the GI50 [3] was 55.2 µM (inactive) and the GI50 [4] was 59.8 µM (inactive). The GI50 [5] was 25.6 µM (inactive), the GI50 [6] was 19.3 µM (inactive) and the GI50 [7] was 37.5 µM (inactive). The GI50 [8] was 17.2 µM (inactive), the GI50 [9] was 22.2 µM (inactive) and the GI50 [10] was 14.9 µM (inactive). The GI50 [11] was 26.5 µM (inactive), the GI50 [12] was 15.5 µM (inactive) and the GI50 [13] was 17.3 µM (inactive). For the same compound, the GI50 [14] was 17.1 µM (inactive), the GI50 [15] was 23.3 µM (inactive) and the GI50 [16] was 29.6 µM (inactive). The GI50 [17] was 29.8 µM (inactive), the GI50 [18] was 18 µM (inactive) and the GI50 [19] was 16.2 µM (inactive). For the same compound, the GI50 [20] was 17 µM (inactive).

Source: ChEMBL document CHEMBL1201862, “PubChem BioAssay data set” (2004)
